Test results published in patent US6979686B1, “Substituted pyrazoles as p38 kinase inhibitors” (Pharmacia Corporation, priority 2001, dated 2005).
Like-named read-outs stand apart in the source and are kept apart here.

Molecular target: T1, human p38 kinase alpha (Homo sapiens, UniProt Q16539)
T1 construct: GST (N, cleaved yes); made in house; host or cells: E. coli DH10B
Assay: p38 kinase in vitro assay, phosphorylation of biotinylated PHAS-I with 32P-ATP
Assay type: biochemical
Conditions: for IC50: read-out: P38 alpha kinase IC50; for inhibition at 1 µM: read-out: P38 alpha kinase % inhib @ conc.

[1] = in vitro P38-alpha kinase inhibition

T1 sequence (Q16539 whole entry): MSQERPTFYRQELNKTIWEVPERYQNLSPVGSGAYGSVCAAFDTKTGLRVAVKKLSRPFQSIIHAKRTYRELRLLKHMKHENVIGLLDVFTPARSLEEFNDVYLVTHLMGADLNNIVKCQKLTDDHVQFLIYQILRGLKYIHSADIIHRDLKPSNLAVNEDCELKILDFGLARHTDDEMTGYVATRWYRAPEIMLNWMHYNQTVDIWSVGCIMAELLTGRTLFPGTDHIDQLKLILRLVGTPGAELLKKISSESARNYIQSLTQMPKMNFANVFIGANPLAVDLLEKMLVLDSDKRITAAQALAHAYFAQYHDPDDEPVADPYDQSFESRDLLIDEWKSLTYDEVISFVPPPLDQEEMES

## Cc1noc(C)c1S(=O)(=O)NCCc1[nH]nc(-c2ccc(F)cc2)c1-c1ccncc1 [Example B-1104]
[1]
  IC50: 120 nM

## O=C(NCCCc1[nH]nc(-c2ccc(F)cc2)c1-c1ccncc1)c1c(F)cc(F)cc1F [Example B-1336]
In vitro P38-alpha kinase
  IC50: 72 nM

## CC(NS(=O)(=O)c1ccc(F)cc1)c1[nH]nc(-c2ccc(F)cc2)c1-c1ccncc1 (stereo not drawn) [Example B-0562]
[1]
  IC50: 220 nM

## Cc1c(-c2ccncc2)c(-c2ccc(F)cc2)nn1CC(=O)Nc1c(Cl)cccc1Cl [Example B-2421]
@ 10.0 uM
  P38 alpha kinase IC50, uM or % inhib @ conc. (uM): % inhib: 89.0% 2

## CC(NC(=O)C1CCCC1)c1[nH]nc(-c2ccc(F)cc2)c1-c1ccncc1 (stereo not drawn) [Example B-0553]
[1]
  IC50: 1440 nM

## CNC(=O)CCC(NC(=O)NC)c1[nH]nc(-c2ccc(F)cc2)c1-c1ccncc1 (stereo not drawn) [Example B-0880]
[1]
  IC50: 150 nM

## CCNC(=O)NCCCc1[nH]nc(-c2ccc(F)cc2)c1-c1ccncc1 [Example B-1226]
@ 1.0 uM
  P38 alpha kinase % inhib @ conc.: 89.0% @

## Cc1cccc(S(=O)(=O)NC(C)c2[nH]nc(-c3ccc(F)cc3)c2-c2ccncc2)c1 (stereo not drawn) [Example B-0638]
[1]
  IC50: 250 nM

## Cc1c(-c2ccncc2)c(-c2ccc(F)cc2)nn1CC(=O)NC(C)c1ccc(Br)cc1 (stereo not drawn) [Example B-2344]
@ 10.0 uM
  P38 alpha kinase % inhib @ conc.: 71.0% @

## CCN(CC)C(=O)NC(C)c1[nH]nc(-c2ccc(F)cc2)c1-c1ccncc1 (stereo not drawn) [Example B-0597]
[1]
  IC50: 1680 nM

## O=S(=O)(NCCCc1[nH]nc(-c2ccc(F)cc2)c1-c1ccncc1)c1cc(Cl)ccc1Cl [Example B-1243]
In vitro P38-alpha kinase
  IC50: 40 nM

## CCCOC(=O)NCCc1[nH]nc(-c2ccc(F)cc2)c1-c1ccncc1 [Example B-1053]
@ 1.0 uM
  P38 alpha kinase % inhib @ conc. (uM): 78.0% @

## O=S(=O)(NC(Cc1ccccc1)c1[nH]nc(-c2ccc(F)cc2)c1-c1ccncc1)c1ccc(F)cc1 (stereo not drawn) [Example B-0707]
[1]
  IC50: 1700 nM

## COc1ccc(S(=O)(=O)NC(Cc2ccccc2)c2[nH]nc(-c3ccc(F)cc3)c2-c2ccncc2)cc1OC (stereo not drawn) [Example B-0767]
[1]
  IC50: 80 nM

## O=S(=O)(NCc1[nH]nc(-c2ccc(F)cc2)c1-c1ccncc1)c1cc(Br)c(Br)s1 [Example B-0136]
@ 1.0 uM
  P38 alpha kinase % inhib @ conc.: 77.0% @

## CC(NC(=O)NCCc1ccccc1)c1[nH]nc(-c2ccc(F)cc2)c1-c1ccncc1 (stereo not drawn) [Example B-0593]
[1]
  IC50: 1220 nM

## COc1ccc(C)cc1S(=O)(=O)NCCc1[nH]nc(-c2ccc(F)cc2)c1-c1ccncc1 [Example B-1098]
[1]
  IC50: < 100 nM

## O=C(c1ccccc1C(F)(F)F)N1CCC(c2[nH]nc(-c3ccc(F)cc3)c2-c2ccncc2)CC1 [Example B-1399]
In vitro P38-alpha kinase
  IC50: 140 nM

## O=C(NC(Cc1ccccc1)c1[nH]nc(-c2ccc(F)cc2)c1-c1ccncc1)c1cccnc1 (stereo not drawn) [Example B-0821]
[1]
  IC50: 1440 nM

## O=C(NCCCc1[nH]nc(-c2ccc(F)cc2)c1-c1ccncc1)c1cnc2ccccc2n1 [Example B-1189]
@ 1.0 uM
  P38 alpha kinase % inhib @ conc. (uM): 68.0% @

## Cc1c(-c2ccncc2)c(-c2ccc(F)cc2)nn1CC(=O)NCCCCCCN(C)C [Example B-2287]
In vitro P38-alpha kinase
  IC50: 2560 nM

## CC(C)COC(=O)NC(Cc1ccccc1)c1[nH]nc(-c2ccc(F)cc2)c1-c1ccncc1 (stereo not drawn) [Example B-0858]
[1]
  IC50: 2100 nM

## O=C(NCCCc1[nH]nc(-c2ccc(F)cc2)c1-c1ccncc1)c1ccno1 [Example B-1169]
@ 1.0 uM
  P38 alpha kinase % inhib @ conc. (uM): 80.0% @

## CS(=O)(=O)c1ccccc1S(=O)(=O)NCCCc1[nH]nc(-c2ccc(F)cc2)c1-c1ccncc1 [Example B-1294]
In vitro P38-alpha kinase
  IC50: 13 nM

## O=S(=O)(NCCCc1[nH]nc(-c2ccc(F)cc2)c1-c1ccncc1)c1ccc(-c2ccccn2)s1 [Example B-1288]
In vitro P38-alpha kinase
  IC50: 150 nM

## Cc1noc(C)c1C(=O)NCCc1[nH]nc(-c2ccc(F)cc2)c1-c1ccncc1 [Example B-1157]
[1]
  IC50: 260 nM

## CCSCCNC(=O)Cn1nc(-c2ccc(F)cc2)c(-c2ccncc2)c1C [Example B-2312]
In vitro P38-alpha kinase
  IC50: 2930 nM

## COc1cccc(C(=O)N2CCC(c3[nH]nc(-c4ccc(F)cc4)c3-c3ccncc3)CC2)c1 [Example B-1369]
In vitro P38-alpha kinase
  IC50: < 100 nM

## O=C(NCCc1[nH]nc(-c2ccc(F)cc2)c1-c1ccncc1)c1cccc2ccccc12 [Example B-1128]
[1]
  IC50: 2550 nM

## O=S(=O)(NCCc1[nH]nc(-c2ccc(F)cc2)c1-c1ccncc1)c1ccc(-c2ccccn2)s1 [Example B-1111]
[1]
  IC50: 190 nM

## O=C(NCCCc1[nH]nc(-c2ccc(F)cc2)c1-c1ccncc1)c1cccc(Cl)c1 [Example B-1354]
In vitro P38-alpha kinase
  IC50: 13 nM

## O=C(c1cccc(C(F)(F)F)c1F)N1CCC(c2[nH]nc(-c3ccc(F)cc3)c2-c2ccncc2)CC1 [Example B-1407]
In vitro P38-alpha kinase
  IC50: 400 nM

## CC(C)OC(=O)NCCCc1[nH]nc(-c2ccc(F)cc2)c1-c1ccncc1 [Example B-1234]
@ 1.0 uM
  P38 alpha kinase % inhib @ conc.: 89.0% @

## CC(=O)Nc1nc(C)c(S(=O)(=O)NC(C)c2[nH]nc(-c3ccc(F)cc3)c2-c2ccncc2)s1 (stereo not drawn) [Example B-0607]
[1]
  IC50: 2790 nM

## O=C(NCCc1[nH]nc(-c2ccc(F)cc2)c1-c1ccncc1)N1CCCC1 [Example B-1032]
@ 1.0 uM
  P38 alpha kinase % inhib @ conc. (uM): 76.0% @

## CC(NS(=O)(=O)c1ccc(Cl)cc1Cl)c1[nH]nc(-c2ccc(F)cc2)c1-c1ccncc1 (stereo not drawn) [Example B-0625]
[1]
  IC50: 23 nM

## Cc1c(-c2ccncc2)c(-c2ccc(F)cc2)nn1CC(=O)Nc1ccccc1C(F)(F)F [Example B-2419]
@ 10.0 uM
  P38 alpha kinase IC50, uM or % inhib @ conc. (uM): % inhib: 86.0% @

## O=C(NCc1[nH]nc(-c2ccc(F)cc2)c1-c1ccncc1)c1ccc(I)cc1 [Example B-0017]
@ 1.0 uM
  inhibition at 1 µM: 56%

## CNC(=O)CCC(NC(=O)c1ccc(F)cc1)c1[nH]nc(-c2ccc(F)cc2)c1-c1ccncc1 (stereo not drawn) [Example B-0862]
[1]
  IC50: 2150 nM

## CCOC(=O)N1CCC(NC(=O)Cn2nc(-c3ccc(F)cc3)c(-c3ccncc3)c2C)CC1 [Example B-2329]
@ 10.0 uM
  P38 alpha kinase % inhib @ conc.: 72.0% @

## O=S(=O)(NCCCc1[nH]nc(-c2ccc(F)cc2)c1-c1ccncc1)c1ccccc1Cl [Example B-1268]
In vitro P38-alpha kinase
  IC50: < 100 nM

## Cc1c(-c2ccncc2)c(-c2ccc(F)cc2)nn1CC(=O)NC1CCC1 [Example B-2330]
@ 10.0 uM
  P38 alpha kinase % inhib @ conc.: 81.0% @

## Cc1c(-c2ccncc2)c(-c2ccc(F)cc2)nn1CC(=O)NC[C@@H]1CCCO1 [Example B-2283]
In vitro P38-alpha kinase
  IC50: 40 nM

## COc1ccc(CCN(CCC#N)C(=O)Cn2nc(-c3ccc(F)cc3)c(-c3ccncc3)c2C)cc1OC [Example B-2403]
@ 100.0 uM
  P38 alpha kinase IC50, uM or % inhib @ conc. (uM): % inhib: 72% @

## Cc1cccc(C)c1NC(=O)NC(Cc1ccccc1)c1[nH]nc(-c2ccc(F)cc2)c1-c1ccncc1 (stereo not drawn) [Example B-0733]
[1]
  IC50: 32000 nM

## CC(NC(=O)c1cccc(Cl)c1)c1[nH]nc(-c2ccc(F)cc2)c1-c1ccncc1 (stereo not drawn) [Example B-0702]
[1]
  IC50: 36 nM

## CC(C)NC(=O)NCCc1[nH]nc(-c2ccc(F)cc2)c1-c1ccncc1 [Example B-0937]
@ 1.0 uM
  P38 alpha kinase % inhib @ conc. (uM): 64.0% @

## CCCS(=O)(=O)NC(C)c1[nH]nc(-c2ccc(F)cc2)c1-c1ccncc1 (stereo not drawn) [Example B-0570]
[1]
  IC50: 270 nM

## O=C(NCCCc1[nH]nc(-c2ccc(F)cc2)c1-c1ccncc1)c1ccc(C(F)(F)F)cc1F [Example B-1337]
In vitro P38-alpha kinase
  IC50: 400 nM

## Cc1ccc(C(=O)N2CCC(c3[nH]nc(-c4ccc(F)cc4)c3-c3ccncc3)CC2)cc1 [Example B-1371]
In vitro P38-alpha kinase
  IC50: 60 nM

## CNC(=O)CCC(NS(C)(=O)=O)c1[nH]nc(-c2ccc(F)cc2)c1-c1ccncc1 (stereo not drawn) [Example B-0878]
[1]
  IC50: 650 nM

## O=C(NCCc1[nH]nc(-c2ccc(F)cc2)c1-c1ccncc1)c1c(F)cc(F)cc1F [Example B-1135]
[1]
  IC50: 230 nM

## O=C(NCCc1ccccc1)NCCc1[nH]nc(-c2ccc(F)cc2)c1-c1ccncc1 [Example B-1044]
@ 1.0 uM
  P38 alpha kinase % inhib @ conc. (uM): 94.0% @

## Cc1cccc(Cl)c1S(=O)(=O)N[C@H](C)c1[nH]nc(-c2ccc(F)cc2)c1-c1ccncc1 [Example B-0467]
[1]
  IC50: < 100 nM

## O=S(=O)(NCCc1[nH]nc(-c2ccc(F)cc2)c1-c1ccncc1)c1cccc(C(F)(F)F)c1 [Example B-1099]
[1]
  IC50: 260 nM

## CCCNC(=O)NC(Cc1ccccc1)c1[nH]nc(-c2ccc(F)cc2)c1-c1ccncc1 (stereo not drawn) [Example B-0735]
[1]
  IC50: 1000 nM

## O=C(NCc1[nH]nc(-c2ccc(F)cc2)c1-c1ccncc1)c1cc2ccccc2s1 [Example B-0029]
@ 1.0 uM
  inhibition at 1 µM: 91%

## CC(NC(=O)c1cc2ccccc2s1)c1[nH]nc(-c2ccc(F)cc2)c1-c1ccncc1 (stereo not drawn) [Example B-0673]
[1]
  IC50: 8540 nM

## O=C(NCCCc1[nH]nc(-c2ccc(F)cc2)c1-c1ccncc1)c1ccccc1F [Example B-1351]
In vitro P38-alpha kinase
  IC50: 68 nM

## O=C(NCCc1[nH]nc(-c2ccc(F)cc2)c1-c1ccncc1)c1ccccc1F [Example B-1150]
[1]
  IC50: 470 nM

## O=S(=O)(NCc1[nH]nc(-c2ccc(F)cc2)c1-c1ccncc1)c1cccc2cccnc12 [Example B-0116]
@ 1.0 uM
  P38 alpha kinase % inhib @ conc.: 73.0% @

## Cc1c(-c2ccncc2)c(-c2ccc(F)cc2)nn1CC(=O)NCCc1ccc([N+](=O)[O-])cc1 [Example B-2302]
In vitro P38-alpha kinase
  IC50: 1000 nM

## O=C(c1cc(F)cc(F)c1)N1CCC(c2[nH]nc(-c3ccc(F)cc3)c2-c2ccncc2)CC1 [Example B-1415]
In vitro P38-alpha kinase
  IC50: 1410 nM

## Cc1cc(C)c(C(=O)NCCc2[nH]nc(-c3ccc(F)cc3)c2-c2ccncc2)c(C)c1 [Example B-1133]
[1]
  IC50: 380 nM

## O=C(c1ccco1)N1CCC(c2[nH]nc(-c3ccc(F)cc3)c2-c2ccncc2)CC1 [Example B-1383]
In vitro P38-alpha kinase
  IC50: 1.2 nM

## CC(=O)OCC(=O)NCCc1[nH]nc(-c2ccc(F)cc2)c1-c1ccncc1 [Example B-0981]
@ 1.0 uM
  P38 alpha kinase % inhib @ conc. (uM): 62.0% @

## O=S(=O)(NCCCc1[nH]nc(-c2ccc(F)cc2)c1-c1ccncc1)c1cc(Cl)cc(Cl)c1O [Example B-1241]
In vitro P38-alpha kinase
  IC50: 40 nM

## O=S(=O)(NCCc1[nH]nc(-c2ccc(F)cc2)c1-c1ccncc1)c1ccc(F)c(Cl)c1 [Example B-1094]
[1]
  IC50: 13 nM

## CS(=O)(=O)NCCc1[nH]nc(-c2ccc(F)cc2)c1-c1ccncc1 [Example B-1024]
@ 1.0 uM
  P38 alpha kinase % inhib @ conc. (uM): 89.0% @

## Cn1cnc(S(=O)(=O)NCCCc2[nH]nc(-c3ccc(F)cc3)c2-c2ccncc2)c1 [Example B-1291]
In vitro P38-alpha kinase
  IC50: 97 nM

## CC(=O)OCC(=O)NC(C)c1[nH]nc(-c2ccc(F)cc2)c1-c1ccncc1 (stereo not drawn) [Example B-0530]
[1]
  IC50: 5530 nM

## Cc1c(-c2ccncc2)c(-c2ccc(F)cc2)nn1CC(=O)NC1Cc2ccccc2C1 [Example B-2321]
@ 10.0 uM
  P38 alpha kinase % inhib @ conc.: 69.0% @
